Data on 31 molecules can be found in patent US20200325505A1, “FILAMENTOUS FUNGI CAPABLE OF PRODUCING VERY LONG CHAIN FATTY ACIDS” (UT-Battelle, LLC, priority 2019, published 2020).

The subject of series [1] is Mortierella elongata AG77. The series can be described thus: Nitrogen source utilisation in Biolog 96-well plates, formazan formation after tetrazolium addition. In kind it is cell-based. The settings on record: for Metabolized: Metabolized = more formazan formation than a control containing no nitrogen source, observed visually at 2 h, 24 h, 148 h; for Nitrogen sources that Mortierella elongata AG77 can metabolize: text summary of Table 4. As to the method: Two 300 mL volumes of growth medium comprising 1 g/L KH2PO4, 1 g/L MgSO4 7H2O, 0.1 g/L CaCl2, 0.02 g/L FeNaEDTA, 0.1 g/L NaCl, and either 1 g/L NH4NO3 or 20 g/L sucrose were prepared. […] Aliquots of 200 μL of carbon-free medium or nitrogen-free medium were pipetted into each well of a set of 96-well plates previously prepared with lyophilized putative carbon or nitrogen sources (Biolog Inc., Hayward, Calif.). Inocula were prepared by perforating a culture of Mortierella elongata AG77 grown on 20 g/L potato dextrose agar with a 3 mm diameter cork borer and separating the surface mycelial mat from the solid growth medium using tweezers. Each well was inoculated with one inoculum. Cultures were incubated at 21° C. for 24 hours to allow metabolic changes to stabilize, and then 100 μL of 3 g/L tetrazolium chloride in water was added to each well.
Conclusions were based on rate and intensity of formazan formation using the 3-(4,5-dimethylthiazol-2-yl)-2,5-diphenyltetrazolium bromide ([…]) assay. “Metabolized” indicates more formazan formation than a control containing no nitrogen source, and “Toxic” indicates less formazan formation than a control containing no nitrogen source, “Metabolized” and “Toxic” assignments are mutually exclusive. In this example, a compound may be “Metabolized” or “Toxic,” but not both.

The test system of series [2] is Mortierella elongata AG77. Briefly: Carbon source utilisation in Biolog 96-well plates, formazan formation after tetrazolium addition. In kind it is cell-based. The settings on record: for Metabolized: Metabolized = more formazan formation than a control containing no carbon source, observed visually at 2 h, 24 h, 148 h; for Carbon sources that Mortierella elongata AG77 can metabolize: summary of Table 3. The gist of the method: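 Carbon- or nitrogen-free mineral medium (pH 5.5) was dispensed onto lyophilised carbon or nitrogen sources and inoculated with 3 mm mycelial plugs of M. elongata grown on PDA. After 24 h at 21 °C, tetrazolium chloride was added and formazan was scored visually at 2, 24 and 148 h against a no-carbon-source control.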

Setting [3] is: compound as nitrogen source, Toxic = less formazan formation than a control containing no nitrogen source.
Setting [4] is: compound as carbon source, Toxic = less formazan formation than a control containing no carbon source.

Residues, ends and D or L forms follow the SMILES beside them.

With `C[C@@H](N)C(=O)O` [D-Alanine], in series [1], the Toxic result is recorded as “no” and the “Nitrogen sources that Mortierella elongata AG77 can metabolize” value was “can metabolize”. The Metabolized result in series [1] (compound as nitrogen source) is “yes”. In addition, in series [2], the Toxic entry was “no” and the “Carbon sources that Mortierella elongata AG77 can metabolize” value is on record as “can metabolize”. In addition, the Metabolized result in series [2] (compound as carbon source) is on record as “yes”.

For the molecule `N[C@H](CC(=O)O)C(=O)O` [D-Aspartic Acid], the Toxic entry in series [1] and in series [2] was “no” each time. Further, the values for the Metabolized entry in series [1] (compound as nitrogen source) and in series [2] (compound as carbon source) were “no” and “yes”, respectively. Also, the “Carbon sources that Mortierella elongata AG77 can metabolize” value in series [2] is reported as “can metabolize”.

On to `N[C@H]1C(O)O[C@H](CO)[C@@H](O)[C@@H]1O` (stereo partly drawn) [D-Glucosamine], for which the Toxic entry in series [1] and in series [2] was “no” each time. In addition, the Metabolized entry was “no” in series [1] (compound as nitrogen source) and “yes” in series [2] (compound as carbon source). The “Carbon sources that Mortierella elongata AG77 can metabolize” value in series [2] is “can metabolize”.

Take `N[C@H](CO)C(=O)O` [D-Serine]: the Toxic result in series [1] and in series [2] was “no” in each case. The Metabolized result in series [1] (compound as nitrogen source) and in series [2] (compound as carbon source) was “no” throughout.

With `NC(=O)[C@@H](O)[C@@H](O)[C@H](O)[C@@H](O)C=O` [Glucuronamide], the Metabolized result in series [1] (compound as nitrogen source) is listed as “no”; in series [2] (compound as carbon source) it was “yes”. The Toxic entry in series [1] (setting [3]) and in series [2] (setting [4]) was “no” in each case. In series [2], the “Carbon sources that Mortierella elongata AG77 can metabolize” value is given as “can metabolize”.

`NCC(=O)O` [Glycine]: the Toxic entry in series [1] and in series [2] was “no” each time. The figures for the Metabolized result in series [1] (compound as nitrogen source) and in series [2] (compound as carbon source) were “yes” and “no”, respectively. Besides, the “Nitrogen sources that Mortierella elongata AG77 can metabolize” value in series [1] is “can metabolize”.

For the molecule `NCC(=O)N[C@@H](CCC(=O)O)C(=O)O` [Glycyl-L-Glutamic Acid] (H-Gly-Glu-OH), the Metabolized result in series [1] (compound as nitrogen source) and in series [2] (compound as carbon source) was “no” each time. For the same molecule, the Toxic entry in series [1] (setting [3]) and in series [2] (setting [4]) was “no” in each case.

As for `OC[C@H]1O[C@@H](n2cnc3c(O)ncnc32)[C@H](O)[C@@H]1O` [Inosine], the Metabolized result in series [1] (compound as nitrogen source) is recorded as “no”; in series [2] (compound as carbon source), “yes”. Moreover, the Toxic result in series [1] (setting [3]) and in series [2] (setting [4]) was “no” each time. The “Carbon sources that Mortierella elongata AG77 can metabolize” value in series [2] is recorded as “can metabolize”.

For the molecule `C[C@H](N)C(=O)O` [L-Alanine], the Toxic entry in series [1] and in series [2] was “no” in each case. In addition, the Metabolized entry in series [1] (compound as nitrogen source) is recorded as “yes”; in series [2] (compound as carbon source), “no”. Besides, in series [1], the “Nitrogen sources that Mortierella elongata AG77 can metabolize” value is recorded as “can metabolize”.

Take `C[C@H](N)C(=O)NCC(=O)O` [L-Alanyl-Glycine] (H-Ala-Gly-OH): the Toxic result in series [1] and in series [2] was “no” in each case. The Metabolized entry in series [1] (compound as nitrogen source) and in series [2] (compound as carbon source) was “no” each time.

Consider `N=C(N)NCCC[C@H](N)C(=O)O` [L-Arginine], for which the Toxic result in series [1] and in series [2] was “no” throughout. Further, the figures for the Metabolized entry in series [1] (compound as nitrogen source) and in series [2] (compound as carbon source) were “no” and “yes”, respectively. Moreover, the “Carbon sources that Mortierella elongata AG77 can metabolize” value in series [2] is on record as “can metabolize”.

In the case of `NC(=O)C[C@H](N)C(=O)O` [L-Asparagine], the Toxic entry in series [1] was “no”; in series [2] it was “yes”. In addition, the Metabolized result in series [1] (compound as nitrogen source) and in series [2] (compound as carbon source) was “no” throughout.

For `N[C@@H](CC(=O)O)C(=O)O` [L-Aspartic Acid], the Toxic entry in series [1] and in series [2] was “no” in each case. Also, the Metabolized result is “no” in series [1] (compound as nitrogen source) and “yes” in series [2] (compound as carbon source). In series [2], the “Carbon sources that Mortierella elongata AG77 can metabolize” value is “can metabolize”.

On to `N[C@@H](CCC(=O)O)C(=O)O` [L-Glutamic Acid], for which the Metabolized result is “yes” in series [1] (compound as nitrogen source) and “no” in series [2] (compound as carbon source). Besides, the Toxic entry in series [1] (setting [3]) and in series [2] (setting [4]) was “no” throughout. In addition, the “Nitrogen sources that Mortierella elongata AG77 can metabolize” value in series [1] is “can metabolize”.

Consider `NC(=O)CC[C@H](N)C(=O)O` [L-Glutamine], for which the Toxic result is “no” in series [1] and “yes” in series [2]. Besides, the Metabolized result in series [1] (compound as nitrogen source) was “yes”; in series [2] (compound as carbon source), “no”. The “Nitrogen sources that Mortierella elongata AG77 can metabolize” value in series [1] was “can metabolize”.

In the case of `N[C@@H](Cc1c[nH]cn1)C(=O)O` [L-Histidine], the Toxic entry in series [1] and in series [2] was “no” in each case. Besides, the figures for the Metabolized entry in series [1] (compound as nitrogen source) and in series [2] (compound as carbon source) were “yes” and “no”, respectively. The “Nitrogen sources that Mortierella elongata AG77 can metabolize” value in series [1] is given as “can metabolize”.

Take `N[C@@H](CCO)C(=O)O` [L-Homoserine]: the Toxic result in series [1] and in series [2] was “no” throughout. Besides, the figures for the Metabolized entry in series [1] (compound as nitrogen source) and in series [2] (compound as carbon source) were “yes” and “no”, respectively. Moreover, the “Nitrogen sources that Mortierella elongata AG77 can metabolize” value in series [1] is “can metabolize”.

Consider `CC[C@H](C)[C@H](N)C(=O)O` [L-Isoleucine], for which the Toxic entry in series [1] and in series [2] was “no” each time. For the same molecule, the Metabolized result in series [1] (compound as nitrogen source) is “yes”; in series [2] (compound as carbon source), “no”. Besides, in series [1], the “Nitrogen sources that Mortierella elongata AG77 can metabolize” value is “can metabolize”.

In the case of `CC(C)C[C@H](N)C(=O)O` [L-Leucine], the Toxic result in series [1] and in series [2] was “no” throughout. Besides, the Metabolized result in series [1] (compound as nitrogen source) and in series [2] (compound as carbon source) was “no” in each case.

With `NCCCC[C@H](N)C(=O)O` [L-Lysine], the Toxic entry in series [1] and in series [2] was “no” in each case. For the same molecule, the Metabolized entry in series [1] (compound as nitrogen source) and in series [2] (compound as carbon source) was “no” in each case.

Take `CSCC[C@H](N)C(=O)O` [L-Methionine]: the Toxic entry in series [1] and in series [2] was “no” in each case. The Metabolized result in series [1] (compound as nitrogen source) and in series [2] (compound as carbon source) was “no” throughout.

For `N[C@@H](Cc1ccccc1)C(=O)O` [L-Phenylalanine], the Metabolized result in series [1] (compound as nitrogen source) is “no”; in series [2] (compound as carbon source), “yes”. For the same molecule, the Toxic result in series [1] (setting [3]) and in series [2] (setting [4]) was “no” each time. Besides, the “Carbon sources that Mortierella elongata AG77 can metabolize” value in series [2] is reported as “can metabolize”.

Turning to `O=C(O)[C@@H]1CCCN1` [L-Proline], in series [1], the Toxic entry is recorded as “no” and the “Nitrogen sources that Mortierella elongata AG77 can metabolize” value is on record as “can metabolize”. Also, the Metabolized result in series [1] (compound as nitrogen source) is “yes”. Moreover, in series [2], the Toxic result is “no” and the “Carbon sources that Mortierella elongata AG77 can metabolize” value is on record as “can metabolize”. In addition, the Metabolized entry in series [2] (compound as carbon source) is listed as “yes”.

Take `O=C1CC[C@@H](C(=O)O)N1` [L-Pyroglutamic Acid]: the Toxic result in series [1] and in series [2] was “no” in each case. Moreover, the Metabolized entry in series [1] (compound as nitrogen source) and in series [2] (compound as carbon source) was “no” each time.

As to `N[C@@H](CO)C(=O)O` [L-Serine], the Toxic entry in series [1] and in series [2] was “no” each time. Also, the Metabolized result in series [1] (compound as nitrogen source) and in series [2] (compound as carbon source) was “no” throughout.

`C[C@@H](O)[C@H](N)C(=O)O` [L-Threonine]: the Toxic entry in series [1] and in series [2] was “no” in each case. Further, the Metabolized entry in series [1] (compound as nitrogen source) is “no”; in series [2] (compound as carbon source) it was “yes”. Also, the “Carbon sources that Mortierella elongata AG77 can metabolize” value in series [2] is given as “can metabolize”.

For the molecule `CC(C)[C@H](N)C(=O)O` [L-Valine], the Toxic entry in series [1] and in series [2] was “no” in each case. Moreover, the Metabolized result in series [1] (compound as nitrogen source) and in series [2] (compound as carbon source) was “no” in each case.

Regarding `CC(=O)N[C@H]1C(O)O[C@H](CO)[C@H](O)[C@@H]1O` (stereo partly drawn) [N-Acetyl-D-Galactosamine], the Metabolized result in series [1] (compound as nitrogen source) was “yes”; in series [2] (compound as carbon source), “no”. For the same molecule, the Toxic result in series [1] (setting [3]) and in series [2] (setting [4]) was “no” each time. In addition, in series [1], the “Nitrogen sources that Mortierella elongata AG77 can metabolize” value is “can metabolize”.

Consider `CC(=O)N[C@H]1C(O)O[C@H](CO)[C@@H](O)[C@@H]1O` (stereo partly drawn) [N-Acetyl-D-Glucosamine], for which the Metabolized result in series [1] (compound as nitrogen source) and in series [2] (compound as carbon source) was “yes” in each case. The Toxic result in series [1] (setting [3]) and in series [2] (setting [4]) was “no” each time. Further, the “Nitrogen sources that Mortierella elongata AG77 can metabolize” value in series [1] was “can metabolize”. Further, the “Carbon sources that Mortierella elongata AG77 can metabolize” value in series [2] was “can metabolize”.

As to `CC(=O)N[C@@H](CCC(=O)O)C(=O)O` [N-Acetyl-L-Glutamic Acid], the Toxic result in series [1] and in series [2] was “no” throughout. In addition, the Metabolized entry was “no” in series [1] (compound as nitrogen source) and “yes” in series [2] (compound as carbon source). Moreover, the “Carbon sources that Mortierella elongata AG77 can metabolize” value in series [2] was “can metabolize”.

`NCCc1ccccc1` [Phenylethyl-amine]: the Metabolized result in series [1] (compound as nitrogen source) and in series [2] (compound as carbon source) was “no” in each case. Further, the Toxic entry in series [1] (setting [3]) and in series [2] (setting [4]) was “no” in each case.
